US20100256086A1, “NON-HYDROLYZABLE NUCLEOSIDE DI- OR TRI-PHOSPHATE DERIVATIVES AND USES THEREOF” (priority 2007, published 2010)
Entries after “also recorded” stand apart in the source; their conditions may differ. Where two headings read alike, the source gives them in different places. Each block holds one compound with its values, some of them ahead of it.

Key:
turkey P2Y1 = biological target: T1, turkey P2Y1 (Meleagris gallopavo, UniProt P49652); assay: Intracellular calcium measurement ([Ca2+]i, fura-2) in 1321N1 astrocytoma cells; format: cell-based
T1 construct: expressed in transfected cells
T1 sequence (P49652 whole entry): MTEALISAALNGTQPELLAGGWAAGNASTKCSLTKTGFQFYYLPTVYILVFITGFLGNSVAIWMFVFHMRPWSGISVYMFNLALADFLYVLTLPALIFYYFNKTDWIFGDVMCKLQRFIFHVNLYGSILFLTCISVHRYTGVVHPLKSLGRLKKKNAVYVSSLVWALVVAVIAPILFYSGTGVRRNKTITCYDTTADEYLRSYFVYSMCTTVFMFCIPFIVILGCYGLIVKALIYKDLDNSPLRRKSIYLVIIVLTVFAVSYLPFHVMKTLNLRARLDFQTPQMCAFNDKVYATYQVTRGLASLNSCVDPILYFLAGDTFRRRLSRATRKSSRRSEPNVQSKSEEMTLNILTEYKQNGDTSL
Procedure: Human 1321N1 astrocytoma cells stably expressing the turkey P2Y1, human P2Y2, human P2Y4 or rat P2Y6 were grown in Dulbecco's modified Eagle's medium containing 5% (v/v) fetal bovine serum, 100 units/ml penicillin, 100 μg/ml streptomycin and 500 μg/ml Geneticin (G-418, Life Technologies, Inc). Changes in the intracellular free calcium concentration, [Ca^2+]i were detected by dual-excitation spectrofluorometric analysis of cell suspensions loaded with fura-2, as previously described (Garrad et al., 1998; Grynkiewicz et al., 1985). Cells were assayed in 10 mM Hepes-buffered saline (pH 7.4) containing 1 mM CaCl2 and 1 mM MgCl2. The cells were pelleted in a microfuge and resuspended in 2 ml of buffer. Concentration-response data were analyzed with the Prism curve fitting program (GraphPAD Software, San Diego, Calif.). Three experiments were conducted on separate days for each P2Y receptor subtype.
The activities of compounds 2, 4B, 17, 18, 19A, 21 (isomers A and B) were examined at the G protein-coupled P2YRs, P2Y1, P2Y2, P2Y4 and P2Y6 expressed in human 1321N1 astrocytoma cells, based on intracellular calcium measurements, as described in Experimental above. In particular, the activity of compound 2, 4B and 19 was examined at P2Y1R, P2Y2R, P2Y4R and P2Y6R, and the activity of compounds 17, 18 and 21 was examined at P2Y1R only. The experiments were conducted by Prof. Gary A. Weisman from Columbia-Missouri University, Columbia, Mo., USA.

[1] = Chemical stability at pH 1.4 and 37° C. evaluated by HPLC; format: physicochemical; conditions: pH 1.4, 37° C., after 19 h
Procedure: The stability of 3 (isomer B) in the appropriate buffer solution (0.2 M HCl/KCl, pH=1.4) at 37° C. was evaluated by HPLC-electrospray ionization (ESI)MS for 5 days at 7-17 h intervals, and its hydrolysis rate, based on the HPLC integration changes of the 3B peak with time, was fit to a pseudo first-order exponential decay rate equation, as shown in FIGS. 2A-2B. In addition to 3B, degradation products 6, 7 and 8 were identified in the hydrolysis mixture, as depicted in Scheme 3. For instance, after 19 h, 50% of 3B was degraded giving rise to 37% of AMP-α-B and AMP-α-H (6 and 7, respectively. Both appear at the same retention time; however, MS enabled the identification of these compounds) and 13% adenosine (FIG. 2A). […]
The stability of 4 (isomer B) in the appropriate buffer solution (pH=1.4) at 37° C. was evaluated by HPLC to monitor possible dephosphorylation products. […] The solution was kept in an oil bath at 37° C. and its composition was analyzed by HPLC-MS, using a Gemini analytic column (5u C-18 110A, 150×4.60 mm) and gradient elution with Solvent System I (see Example 1) at 89:11 A:B for 15 min and then 82:18 to 74:26 A:B for 20 min at a flow rate of 1 ml/min. […] The hydrolysis rate of 4 was determined by measuring the change in the integration of the HPLC peaks of the degradation products, 6, 7 and 8, with time.

[2] = Stability in human blood serum, Method A; format: in vitro ADME; conditions: human blood serum and RPMI-1640, 37° C.
Procedure: Preparation of the Human Blood Serum: Blood Taken from Healthy Volunteers was obtained from a blood bank (Tel-Hashomer hospital, Israel), stored for 12 h at 4° C. and centrifuged in plastic tubes at 1500 g for 15 min at room temperature. The serum was separated and stored at −80° C.
The assay mixture, containing a 40 mM nucleotide derivative solution in deionized water (4.5 μl), human blood serum (180 μl) and RPMI-1640 (540 μl), was incubated at 37° C. for 1, 4, 8, 16, 24, 48, 72 and 96 h. The samples were then treated with 0.6 M of hydrochloric acid (430 μl), centrifuged for 2 min (13,000 g, 4° C.), neutralized by addition of 4 M of KOH, centrifuged for 2 min (13,000 g, 4° C.) and freeze-dried. The stability of the nucleotide was evaluated by HPLC for monitoring possible dephosphorylation products. The mixture was separated on a Gemini analytic column (5u C-18 110A, 150×4.60 mm) with gradient elution [0.01 M KH2PO4 pH=4.5 (A)/acetonitrile (B), 100:0→60:40, A:B, 20 min for 2, 3A and 3B; 100:0→95:5, A:B, 10 min for ATP] and flow rate of 1 ml/min. The hydrolysis rate was determined by measuring the change in the integration of the respective HPLC peaks with time.

[3] = biological target: T2, calf intestine alkaline phosphatase (Bos taurus, UniProt P19111); assay: Enzymatic stability to alkaline phosphatase; format: in vitro ADME; conditions: 37° C., as in Example 6
T2 construct: purchased Fermentas Inc., Glen Burnie, Md
T2 sequence (P19111 20-506): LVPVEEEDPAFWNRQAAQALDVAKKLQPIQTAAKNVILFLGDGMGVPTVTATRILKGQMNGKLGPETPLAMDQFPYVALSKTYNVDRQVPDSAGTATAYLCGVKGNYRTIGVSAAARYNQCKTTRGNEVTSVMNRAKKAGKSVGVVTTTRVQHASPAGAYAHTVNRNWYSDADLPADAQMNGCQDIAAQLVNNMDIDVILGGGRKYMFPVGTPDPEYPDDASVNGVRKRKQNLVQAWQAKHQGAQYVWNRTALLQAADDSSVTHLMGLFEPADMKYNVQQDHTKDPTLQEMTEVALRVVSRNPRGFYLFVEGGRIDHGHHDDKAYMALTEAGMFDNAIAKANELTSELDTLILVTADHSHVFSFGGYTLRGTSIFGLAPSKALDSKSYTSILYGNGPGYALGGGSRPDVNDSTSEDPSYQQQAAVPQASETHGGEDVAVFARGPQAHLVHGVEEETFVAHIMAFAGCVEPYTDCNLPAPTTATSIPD
Procedure: Enzyme activity was measured by the release of p-nitrophenol from the nucleotide derivatives using a UV-vis spectrophotometer at 405 nm. Relative activity and resistance of nucleotides to enzymatic hydrolysis were determined at 37° C. Briefly, 32.5 μl of nucleotide derivative (77 μg/ml in 0.1 M Tris-HCl and 0.1 M MgCl2, pH 7.5) and 6 μl of deionized water were incubated with calf intestine alkaline phosphatase (Fermentas Inc., Glen Burnie, Md., 1 unit/μl, 6.25 μl at 37° C. final pH=9.8). After 30 min, the reaction was stopped by incubation at 80° C. for 30 min. The stability of the nucleotide derivative was evaluated by HPLC to monitor possible dephosphorylation products. The mixture was separated on a Gemini analytic column (5u C-18 110A, 150×4.60 mm) using gradient elution with Solvent System I (see Example 1) at 90:10 to 70:30 A:B for 3A and 3B, and 82:18 to 50:50 for 4A, 4B and 2 over 20 min and at a flow rate of 1 ml/min.

rP2Y1R = biological target: T3, rP2Y1R (Rattus norvegicus, UniProt P49651); conditions: HEK293 cells expressing rP2Y1R, Ca2+ mobilization; cited from earlier work
T3 construct: host or cells: HEK293 cells
T3 sequence (P49651 whole entry): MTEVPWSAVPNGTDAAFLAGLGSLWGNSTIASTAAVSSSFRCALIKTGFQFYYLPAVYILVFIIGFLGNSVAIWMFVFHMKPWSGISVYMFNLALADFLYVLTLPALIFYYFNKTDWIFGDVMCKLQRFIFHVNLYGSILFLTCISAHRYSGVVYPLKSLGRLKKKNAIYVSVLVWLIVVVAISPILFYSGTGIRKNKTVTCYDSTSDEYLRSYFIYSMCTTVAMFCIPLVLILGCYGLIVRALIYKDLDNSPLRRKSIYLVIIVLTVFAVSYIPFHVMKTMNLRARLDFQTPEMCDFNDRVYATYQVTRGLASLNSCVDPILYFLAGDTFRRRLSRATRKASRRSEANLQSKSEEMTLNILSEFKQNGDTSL

[4] = Glucose challenge in cannulated Wistar rats (insulin secretagogue efficacy); format: in vivo, rat; conditions: starved Wistar rats
Excerpt: The objective of this experiment is to study in vivo the efficacy of the compounds of the present invention as insulin secretion enhancing molecules, following a single oral gavage (per os) administration of glucose to cannulated Wister rats, by measuring the blood glucose and insulin levels following administration of the tested compound to the cannulated rats intra venues through the cannule.
A total of about 40 healthy 10-13 week old Wister rats are used. Animals are acclimatized for at least 4 days prior to commencement of treatment and are fed with non-medicated commercial sterile rodent food ad libitum. Drinking tap water are available ad libitum.
About 48 hours prior treatment, rats are weighted and a population uniform in weight (about 90% of the animals) is taken for cannulation. In particular, animals are anesthetized by 2.5% isofluran 97.5% dry air inhalation, and a P52 cannula is surgically inserted and fixed in the jugular vein and flushed with 0.3-0.5 ml 5% heparinized saline after cannulation (and thereafter, immediately after each blood collection). In case a technical problem such as fixation or clotting arises with a rat's indwelling cannula, another rat is cannulated and replace the previously allocated rat in the study.
On the day of treatment, the cannule of each one of the rats is checked, the rats are weighed, and the glucose level of each one of the rats is checked via the tail vain. […]
Glucose and insulin levels are measured 30 minutes prior to glucose administration (and prior to glibenclamide administration in the case of the positive control group); immediately before and 5 minutes after glucose administration; 15 minutes after glucose administration, namely, 5 minutes after administration of the tested compound or saline (in the cases of the first and the negative control groups, respectively); and then 30, 45, 60 120 and 150 minutes after glucose administration. […]

SMILES: B[P@](=O)(OC[C@H]1O[C@@H](n2cnc3c(N)ncnc32)[C@H](O)[C@@H]1O)OP(=O)(O)CP(=O)(O)O (single isomer, unassigned) [Compound 3B, Adenosine-β,γ-CH2-5′-O-(1-boranotriphosphate)]
activity at P2Y1R, in words (turkey P2Y1): practically inactive
activities at the P2YRs tested (turkey P2Y1; P2Y1, P2Y2, P2Y4 and P2Y6 tested): insignificant activities
fraction degraded [1]: 50%
half-life in human blood serum [2]: 47.1 h

t1/2 to alkaline phosphatase [3]: about 4 h
half-life in human blood serum: about 2 h
SMILES: Nc1ncnc2c1ncn2[C@@H]1O[C@H](COP(=O)(O)OP(=O)(O)O)[C@@H](O)[C@H]1O [ADP, reference compound]

SMILES: CSc1nc(N)c2ncn([C@@H]3O[C@H](COP(=O)(O)OP(=O)(O)OP(=O)(O)O)[C@@H](O)[C@H]3O)c2n1 [Compound 2-MeS-ATP, 2-MeS-ATP]
EC50 (rP2Y1R): 1 nM

SMILES: [BH3-]P(=O)(OC[C@H]1O[C@@H](n2cnc3c(N)nc(SC)nc32)[C@H](O)[C@@H]1O)OP(=O)([O-])[O-].[Na+].[Na+].[Na+] (stereo partly drawn) [Compound 19, 2MeS-adenosine-5′-O-(Pα-borano) diphosphate]
glucose levels after glucose challenge relative to saline treated rats ([4]; 2.5 mg/kg IV 10 minutes after glucose challenge, preliminary study): reduced the glucose levels; also recorded: reduces glycemia

SMILES: COc1ccc(Cl)cc1C(=O)NCCc1ccc(S(=O)(=O)NC(=O)NC2CCCCC2)cc1 [glibenclamide, reference compound]
glucose levels after glucose challenge relative to saline treated rats ([4]; 0.25 mg/kg per os 30 minutes prior to glucose, positive control): reduced the glucose levels
